Assay results taken from patent US8592428B2 (MSD K. K., priority 2008, dated 2013).
pEC50: −log10 of the molar value. ≈ marks a conversion by molar mass, not a printed value.

Experiments:
[1] = molecular target: T1, recombinant human liver GK (Homo sapiens, UniProt P35557); experiment: Glucokinase-activating effect (Thio-NADH coupled G6PDH assay); assay type: biochemical; conditions: final glucose concentration 2.5 mM, 30° C.
T1 construct: made in house; host or cells: E. coli
T1 sequence (P35557 1-466 isoform P35557-2): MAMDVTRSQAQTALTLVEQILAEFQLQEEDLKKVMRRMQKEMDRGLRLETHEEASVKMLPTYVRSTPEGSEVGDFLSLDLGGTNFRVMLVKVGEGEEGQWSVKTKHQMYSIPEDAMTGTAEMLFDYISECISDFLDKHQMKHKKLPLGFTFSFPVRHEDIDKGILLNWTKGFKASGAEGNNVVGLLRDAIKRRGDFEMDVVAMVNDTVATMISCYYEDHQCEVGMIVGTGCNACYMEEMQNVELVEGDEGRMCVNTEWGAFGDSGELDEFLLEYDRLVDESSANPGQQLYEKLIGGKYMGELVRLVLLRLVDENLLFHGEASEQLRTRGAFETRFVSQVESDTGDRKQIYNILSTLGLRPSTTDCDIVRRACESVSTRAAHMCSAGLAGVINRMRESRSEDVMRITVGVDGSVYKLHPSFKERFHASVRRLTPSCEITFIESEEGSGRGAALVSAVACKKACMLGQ
Text: The excellent glucokinase-activating effect of the compounds of formula (I) may be determined by a method described in literature (for example, Diabetes, Vol. 45, pp. 1671-1677, 1996), or in accordance with it.
The glucokinase activity may be determined not by directly measuring glucose-6-phosphate but by measuring the level of Thio-NADH, which is produced when a reporter enzyme, glucose-6-phosphate dehydrogenase produces phosphogluconolactone from glucose-6-phosphate, and based on the level, the degree of glucokinase activation by the compound tested may be determined.
In this assay, used was a recombinant human liver GK, which was expressed by E. coli as a FLAG fusion protein therein and was purified by […] M2 AFFINITY GEL (Sigma).
Using a flat-bottomed 96-well plate, the assay was carried out at 30° C. 69 μl of an assay buffer (25 mM Hepes Buffer/pH=7.2, 2 mM MgCl2, 1 mM ATP, 0.5 mM TNAD, 1 mM dithiothreitol) was put into the plate, and 1 μl of a DMSO solution of the compound or DMSO alone as a control was added thereto. Next, 20 μl of an enzyme mixture (FLAG-GK, 20 U/ml G6PDH) cooled in ice was added to it, and 10 μl of a substrate, 25 mM glucose was added to it, and the reaction was initiated (final glucose concentration=2.5 mM).
After the start of the reaction, the increase in the absorbance at 405 nm was measured for 12 minutes at intervals of 30 seconds, and the increase for the first 5 minutes was used for assessing the compound tested. FLAG-GK was added so that the absorbance increase after 5 minutes in the presence of 1% DMSO could be from 0.04 to 0.06.
The OD level of the DMSO control was set as 100%; and the OD level of the test compound at different concentrations was determined. From the OD level at each concentration, Emax (%) and EC50 (μM) were computed and used as the index of the GK-activating potency of the compound.

[2] = Solubility in water by solution precipitation method (HPLC); assay type: physicochemical; conditions: water (2% DMSO), kinetic from dmso stock, from 10 mM DMSO solution, 60 minutes stirring at room temperature, compounds of the present invention
Experimental: For solubility in water, the solubility of a compound in water was determined by a solution precipitation method.
For an HPLC system, Agilent HPLC 1100 system was used. […] For a shaker, Microincubator M-36 (Taitec) was used. For a plate, a 96-deep well plate (Nunc. 260252) was used. For a well cap, Pre-Slit Well Cap for 96 Well PP (NALGENE. 276011) was used. For a filtration plate, MultiScreen Solubility (Millipore; MSSLBPC10) was used. For dispensation, an 8-channel electronic multipipette, Biohit Proline (Biohit), and a 96-well automatic pipetting device, Biomeck 2000 (Biomeck) were used. For a reagent used, a pure solvent for DMSO ultraviolet absorption spectrum (Dojindo 349-01025) and water (MiliQ water, manufactured by Millipore).
For a DMSO solution, a sample was prepared with DMSO to be precisely 10 mM.
Precise dispensation of 10 μL of a DMSO solution into each well of a 96-well plate was performed. Following addition of 490 μL of water to each of the wells and plate-sealing with 96-well Cap (Agilent No. 5042-1389), intense stirring processing of the plate was performed for 60 minutes at room temperature on a shaker. Subsequently, 200 μL of a treatment sample was added to a plate for centrifugal filtration, and centrifugal filtration of the sample was performed to obtain a filtrate. A sample solution was made by adding 200 μl, of a 50% aqueous acetonitrile solution to the provided filtrate.
Precise dispensation of 10 μL of a DMSO solution into each well of a 96-well plate was performed.
Detection was performed using a multi-wavelength detector (190-370 nm). For a column, the above-mentioned column was used at 40° C. A flow rate was set at 1.2 ml/min, and an amount of an injected sample at 20 μL. For a moving phase, a 0.1% aqueous phosphoric acid solution as a liquid A and acetonitrile as a liquid B were used to carry out analyses in accordance with a time schedule described below.
For the analyses, the data of UV 275 nm were adopted. […] Using the calibration curve, regression calculation of concentrations in water was carried out from Area of sample solutions (water).

Row | Compound | pEC50 [1] | solubility at 60 min [2] [µM] | Emax ([1]; OD level of DMSO control = 100%) [%]
1 | CC(=O)N1CCC[C@@H]1c1cc2[nH]c(-c3cnccn3)cc2cc1Oc1ccc(OCCO)nc1 [Example 12, 6-[(R)-1-acetylpyrrolidin-2-yl]-5-[6-(2-hydroxyethoxy)pyridin-3-yloxy]-2-(pyrazin-2-yl)-1H-indole] | – | 128 (≈ 58.8 µg/mL) | –
2 | CC(=O)N1CCC[C@@H]1c1cc2[nH]c(-c3cnc(C)cn3)cc2cc1Oc1ccc(CO)nc1 [Example 7, 6-[(R)-1-acetylpyrrolidin-2-yl]-5-(6-hydroxymethylpyridin-3-yloxy)-2-(5-methylpyrazin-2-yl)-1H-indole] | 6.92 | > 170 | –
3 | CC(=O)N1CCC[C@@H]1c1cc2[nH]c(-c3cnc(C(C)(C)O)cn3)cc2cc1Oc1ccc(C(=O)N2CCC2)nc1 [Example 21, 6-[(R)-1-acetylpyrrolidin-2-yl]-5-[6-(azetidin-1-ylcarbonyl)pyridin-3-yloxy]-2-[5-(1,1-dimethylhydroxymethyl)pyrazin-2-yl]-1H-indole] | – | > 170 | –
4 | CC(=O)N1CCC[C@@H]1c1cc2[nH]c(-c3cnccn3)cc2cc1Oc1ccc(C(=O)N2CCC2)nc1 [Example 20, 6-[(R)-1-acetylpyrrolidin-2-yl]-5-[6-(azetidin-1-ylcarbonyl)pyridin-3-yloxy]-2-(pyrazin-2-yl)-1H-indole] | – | 122 (≈ 59.1 µg/mL) | –
5 | CC(=O)N1CCC[C@@H]1c1cc2[nH]c(-c3ccccn3)cc2cc1Oc1ccc(OCCO)nc1 [Example 11, 6-[(R)-1-acetylpyrrolidin-2-yl]-5-[6-(2-hydroxyethoxy)pyridin-3-yloxy]-2-(pyridin-2-yl)-1H-indole] | – | 48.6 (≈ 22.3 µg/mL) | –
6 | COCc1ccc(Oc2cc3cc(-c4ccccn4)[nH]c3cc2[C@H]2CCCN2C(C)=O)cn1 [Example 18, 6-[(R)-1-acetylpyrrolidin-2-yl]-5-(6-methoxymethylpyridin-3-yloxy)-2-(pyridin-2-yl)-1H-indole] | – | 133 (≈ 58.8 µg/mL) | –
7 | CC(=O)N1CCC[C@@H]1c1cc2[nH]c(-c3cnccn3)cc2cc1Oc1ccc(CO)nc1 [Example 6, 6-[(R)-1-acetylpyrrolidin-2-yl]-5-(6-hydroxymethylpyridin-3-yloxy)-2-(pyrazin-2-yl)-1H-indole] | – | > 170 | –
8 | CC(=O)N1CCC[C@@H]1c1cc2[nH]c(-c3cnccn3)cc2cc1Oc1ccc(CCO)nc1 [Example 19, 6-[(R)-1-acetylpyrrolidin-2-yl]-5-[6-(2-hydroxyethyl)pyridin-3-yloxy]-2-(pyrazin-2-yl)-1H-indole] | – | > 170 | –
9 | CC(=O)N1CCC[C@@H]1c1cc2[nH]c(-c3cnccn3)cc2cc1Oc1ccc(C(=O)N(C)C)nc1 [Example 25, 6-[(R)-1-acetylpyrrolidin-2-yl]-5-[6-(N,N-dimethylcarbamoyl)pyridin-3-yloxy]-2-(pyrazin-2-yl)-1H-indole] | – | > 170 | –
10 | CC(=O)N1CCC[C@@H]1c1cc2[nH]c(-c3cnc(CO)cn3)cc2cc1Oc1ccc(OCCO)nc1 [Example 14, 6-[(R)-1-acetylpyrrolidin-2-yl]-5-[6-(2-hydroxyethoxy)pyridin-3-yloxy]-2-(5-hydroxymethylpyrazin-2-yl)-1H-indole] | – | > 170 | –

Continued, values first:

Row | pEC50 [1] | solubility at 60 min [2] [µM] | Emax ([1]; OD level of DMSO control = 100%) [%] | Compound
11 | 6.89 | 152 (≈ 81.2 µg/mL) | – | CC(=O)N1CCC[C@@H]1c1cc2[nH]c(-c3ccc(C(C)(C)O)cn3)cc2cc1Oc1ccc(S(C)(=O)=O)nc1 [Example 9, 6-[(R)-1-acetylpyrrolidin-2-yl]-2-[5-(1,1-dimethylhydroxymethyl)pyridin-2-yl]-5-(6-methylsulfonylpyridin-3-yloxy)-1H-indole]
12 | 6.96 | 95.1 (≈ 48.3 µg/mL) | – | CC(=O)N1CCC[C@@H]1c1cc2[nH]c(-c3cnc(CO)cn3)cc2cc1Oc1ccc(S(C)(=O)=O)nc1 [Example 10, 6-[(R)-1-acetylpyrrolidin-2-yl]-2-(5-hydroxymethylpyrazin-2-yl)-5-(6-methylsulfonylpyridin-3-yloxy)-1H-indole]
13 | 6.89 | 168 (≈ 79.4 µg/mL) | 849 | COCc1ccc(Oc2cc3cc(-c4ccc(CO)cn4)[nH]c3cc2[C@H]2CCCN2C(C)=O)cn1 [Example 15, 6-[(R)-1-acetylpyrrolidin-2-yl]-2-(5-hydroxymethylpyridin-2-yl)-5-(6-methoxymethylpyridin-3-yloxy)-1H-indole]
14 | 7.05 | > 170 | – | CC(=O)N1CCC[C@@H]1c1cc2[nH]c(-c3cnccn3)cc2cc1Oc1ccc(S(C)(=O)=O)nc1 [Example 2]
15 | – | > 170 | – | CC(=O)N1CCC[C@@H]1c1cc2[nH]c(-c3ccc(C(C)(C)O)cn3)cc2cc1Oc1ccc(CO)nc1 [Example 8, 6-[(R)-1-acetylpyrrolidin-2-yl]-2-[5-(1,1-dimethylhydroxymethyl)pyridin-2-yl]-5-(6-hydroxymethylpyridin-3-yloxy)-1H-indole]
16 | 6.92 | > 170 | – | CC(=O)N1CCC[C@@H]1c1cc2[nH]c(-c3cnc(C)cn3)cc2cc1Oc1ccc(S(C)(=O)=O)nc1 [Example 3, 6-[(R)-1-acetylpyrrolidin-2-yl]-5-(6-methylsulfonylpyridin-3-yloxy)-2-(5-methylpyrazin-2-yl)-1H-indole]
17 | – | > 170 | – | CC(=O)N1CCC[C@@H]1c1cc2[nH]c(-c3cnc(C(C)(C)O)cn3)cc2cc1Oc1ccc(S(C)(=O)=O)nc1 [Example 22, 6-[(R)-1-acetylpyrrolidin-2-yl]-2-[5-(1,1-dimethylhydroxymethyl)pyrazin-2-yl]-5-(6-methylsulfonylpyridin-3-yloxy)-1H-indole]
18 | – | 142 (≈ 76.6 µg/mL) | – | CC(=O)N1CCC[C@@H]1c1cc2[nH]c(-c3ccc(C(C)(C)O)cn3)cc2cc1Oc1ccc(C(=O)N2CCC2)nc1 [Example 24, 6-[(R)-1-acetylpyrrolidin-2-yl]-5-[6-(azetidin-1-ylcarbonyl)pyridin-3-yloxy]-2-[5-(1,1-dimethylhydroxymethyl)pyridin-2-yl]-1H-indole]
19 | – | 112 (≈ 59.5 µg/mL) | – | CNC(=O)c1ccc(-c2cc3cc(Oc4ccc(S(C)(=O)=O)nc4)c([C@H]4CCCN4C(C)=O)cc3[nH]2)nc1 [Example 5, 6-[(R)-1-acetylpyrrolidin-2-yl]-2-[5-(N-methylcarbamoyl)pyridin-2-yl]-5-(6-methylsulfonylpyridin-3-yloxy)-1H-indole]
20 | – | 77.6 (≈ 39.7 µg/mL) | – | CC(=O)N1CCC[C@@H]1c1cc2[nH]c(-c3ccc(CO)cn3)cc2cc1Oc1ccc(C(=O)N2CCC2)nc1 [Example 23, 6-[(R)-1-acetylpyrrolidin-2-yl]-5-[6-(azetidin-1-ylcarbonyl)pyridin-3-yloxy]-2-(5-hydroxymethylpyridin-2-yl)-1H-indole]
